Values quoted from earlier work as cited in patent US20140141090A1, “Pharmaceutical Composition Comprising Opioid Agonist And Sequestered Antagonist” (priority 2011, published 2014).
Where a name gives a salt, the structure may show the parent alone. Read-outs that look alike come from different tables or passages of the source.

Columns and labels:
[1] = after oral administration
[2] = not given; remark: listed apart in the source
[3] = not given; remark: listed apart in the source
[4] = in comparison to a 15 mg dose of hydrocodone

Compound: COc1ccc2c3c1O[C@H]1[C@@H](O)C=C[C@H]4[C@@H](C2)N(C)CC[C@@]341 [codeine]
- Equianalgesic dose [4]: 90.0 mg

Compound: C[C@H]1[C@H]2Cc3ccc(O)cc3[C@]1(C)CCN2CC1CC1 [cyclazocine]
- Duration of action [1]: ~24 h

Compound: O=C1CC[C@@]2(O)[C@H]3Cc4ccc(O)c5c4[C@@]2(CCN3CC2CC2)[C@H]1O5 [hydrochloride salt of naltrexone, naltrexone hydrochloride]
- Solubility in water [2]: up to 100 mg/cc

Compound: COc1ccc2c3c1O[C@H]1C(=O)CC[C@H]4[C@@H](C2)N(C)CC[C@]314 [hydrocodone]
- Equianalgesic dose [4]: 15.0 mg

Compound: CN1CC[C@]23CCCC[C@H]2[C@H]1Cc1ccc(O)cc13 [levorphanol]
- Equianalgesic dose [4]: 1.8 mg

Compound: CCOC(=O)C1(c2ccccc2)CCN(C)CC1 [meperidine]
- Equianalgesic dose (in vivo): 135.0 mg

Compound: CCC(=O)C(CC(C)N(C)C)(c1ccccc1)c1ccccc1 (stereo not drawn) [methadone]
- Equianalgesic dose [4]: 9.0 mg

Compound: CN1CC[C@]23c4c5ccc(O)c4O[C@H]2[C@@H](O)C=C[C@H]3[C@H]1C5 [morphine]
- Equianalgesic dose (in vivo): 27.0 mg

Compound: O=C1CC[C@@]2(O)[C@H]3Cc4ccc(O)c5c4[C@@]2(CCN3CC2CC2)[C@H]1O5 [naltrexone]
- Duration of action [1]: ~24 h
- Oral bioavailability [3]: 5-40%
- Time of absorption following oral administration [3]: ≤ 1 h

Compound: COc1ccc2c3c1OC1C(=O)CC[C@@]4(O)[C@@H](C2)N(C)CC[C@]314 (stereo partly drawn) [oxycodone, 4,5-epoxy-14-hydroxy-3-methoxy-17-methylmorphinan-6-one]
- Equianalgesic dose [4]: 13.5 mg
